Laboratory results: PubChem BioAssay AID2060484 (Molecular Pharmacology Branch, DTP, NCI, 2025)

System: SUM149PT spheroids with HUVEC/MSC, viability
Assay: Anticancer human tumor SUM149PT cell line growth inhibition [GQUAD];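 further: spheroids exposed to drugs for seven days before readout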;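 on viability, T/C: percent viability relative to DMSO vehicle control taken as 100%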
Settings: for IC50: curve of first compound; for viability, T/C: stronger effect = lower value; active means viability on the fitted dose curve at most 10% of control; inactive means the rest
Summary of the method: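 Viability of tumor cells grown as complex spheroids with endothelial and stromal cells, exposed to drug combinations. Top concentration at or near clinical Cmax (else 10 microM), diluted in half-log increments.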

[1] = second compound 0.0316 µM, first compound 0.0316 µM
[2] = second compound 0.0316 µM, first compound 0.316 µM
[3] = second compound 0.1 µM, first compound 0.0316 µM
[4] = second compound 0.1 µM, first compound 0.316 µM
[5] = second compound 0.316 µM, first compound 0.0316 µM
[6] = second compound 0.316 µM, first compound 0.316 µM
[7] = second compound 1 µM, first compound 0.0316 µM
[8] = second compound 1 µM, first compound 0.316 µM
[9] = second compound 3.16 µM, first compound 0.0316 µM
[10] = second compound 3.16 µM, first compound 0.316 µM
[11] = second compound 10 µM, first compound 0.0316 µM
[12] = second compound 10 µM, first compound 0.316 µM
[13] = second compound 0.0316 µM, first compound 0.1 µM
[14] = second compound 0.0316 µM, first compound 1 µM
[15] = second compound 0.0316 µM, first compound 3.16 µM
[16] = second compound 0.0316 µM, first compound 10 µM
[17] = second compound 0.1 µM, first compound 0.1 µM
[18] = second compound 0.1 µM, first compound 1 µM
[19] = second compound 0.1 µM, first compound 3.16 µM
[20] = second compound 0.1 µM, first compound 10 µM
[21] = second compound 0.316 µM, first compound 0.1 µM
[22] = second compound 0.316 µM, first compound 1 µM
[23] = second compound 0.316 µM, first compound 3.16 µM
[24] = second compound 0.316 µM, first compound 10 µM
[25] = second compound 1 µM, first compound 0.1 µM
[26] = second compound 1 µM, first compound 1 µM
[27] = second compound 1 µM, first compound 3.16 µM
[28] = second compound 1 µM, first compound 10 µM
[29] = second compound 3.16 µM, first compound 0.1 µM
[30] = second compound 3.16 µM, first compound 1 µM
[31] = second compound 3.16 µM, first compound 3.16 µM
[32] = second compound 3.16 µM, first compound 10 µM
[33] = second compound 10 µM, first compound 0.1 µM
[34] = second compound 10 µM, first compound 1 µM
[35] = second compound 10 µM, first compound 3.16 µM
[36] = second compound 10 µM, first compound 10 µM

Cc1[nH]c2ccccc2c1CCNCc1ccc(/C=C/C(=O)NO)cc1 + CN(C)c1ccc(Nc2c3ccc(NC(=O)CCN4CCCC4)cc3nc3cc(NC(=O)CCN4CCCC4)ccc23)cc1
231 nM: IC50 (second compound 0.316 µM)
253 nM: IC50 (second compound 0.0316 µM)
202 nM: IC50 (second compound 1 µM)
237 nM: IC50 (second compound 0.1 µM)
133 nM: IC50 (second compound 10 µM)
inactive: viability, T/C (second compound 0.0316 µM, first compound 0.000999 µM) 103% | viability, T/C (second compound 0.0316 µM, first compound 0.00316 µM) 98% | viability, T/C (second compound 0.0316 µM, first compound 0.00999 µM) 96.5% | viability, T/C [1] 102% | viability, T/C (second compound 0.0316 µM, first compound 0.0999 µM) 85.4% | viability, T/C [2] 41.5% | viability, T/C (second compound 0.1 µM, first compound 0.000999 µM) 97.8% | viability, T/C (second compound 0.1 µM, first compound 0.00316 µM) 97.1% | viability, T/C (second compound 0.1 µM, first compound 0.00999 µM) 96.6% | viability, T/C [3] 90.7% | viability, T/C (second compound 0.1 µM, first compound 0.0999 µM) 87.6% | viability, T/C [4] 37.4% | viability, T/C (second compound 0.316 µM, first compound 0.000999 µM) 91.2% | viability, T/C (second compound 0.316 µM, first compound 0.00316 µM) 96.8% | viability, T/C (second compound 0.316 µM, first compound 0.00999 µM) 88.8% | viability, T/C [5] 91.1% | viability, T/C (second compound 0.316 µM, first compound 0.0999 µM) 89.8% | viability, T/C [6] 35.1% | viability, T/C (second compound 1 µM, first compound 0.000999 µM) 90.9% | viability, T/C (second compound 1 µM, first compound 0.00316 µM) 88.5% | viability, T/C (second compound 1 µM, first compound 0.00999 µM) 84.3% | viability, T/C [7] 85.5% | viability, T/C (second compound 1 µM, first compound 0.0999 µM) 81.7% | viability, T/C [8] 29.6% | viability, T/C (second compound 3.16 µM, first compound 0.000999 µM) 81.6% | viability, T/C (second compound 3.16 µM, first compound 0.00316 µM) 88.5% | viability, T/C (second compound 3.16 µM, first compound 0.00999 µM) 86.5% | viability, T/C [9] 84.5% | viability, T/C (second compound 3.16 µM, first compound 0.0999 µM) 72.5% | viability, T/C [10] 32.1% | viability, T/C (second compound 10 µM, first compound 0.000999 µM) 90% | viability, T/C (second compound 10 µM, first compound 0.00316 µM) 84.7% | viability, T/C (second compound 10 µM, first compound 0.00999 µM) 82.6% | viability, T/C [11] 84.3% | viability, T/C (second compound 10 µM, first compound 0.0999 µM) 58% | viability, T/C [12] 25.9%
190 nM: IC50 (second compound 3.16 µM)

CC(=O)O[C@H]1C(=O)[C@@]2(C)[C@H]([C@H](OC(=O)c3ccccc3)[C@]3(O)C[C@H](OC(=O)[C@H](O)[C@@H](NC(=O)c4ccccc4)c4ccccc4)C(C)=C1C3(C)C)[C@]1(OC(C)=O)CO[C@@H]1C[C@@H]2O + Cc1cnc(CNC(=O)c2c(=O)c3ccc(N4CCCN(C)CC4)nc3n3c2sc2ccccc23)cn1
< 31.6 nM: IC50 (second compound 0.0316 µM) | IC50 (second compound 0.1 µM) | IC50 (second compound 0.316 µM) | IC50 (second compound 1 µM) | IC50 (second compound 3.16 µM) | IC50 (second compound 10 µM)
active: viability, T/C [11] 0.13% | viability, T/C [33] 0.61% | viability, T/C [12] 1.35% | viability, T/C [34] 0.64% | viability, T/C [35] 1.28% | viability, T/C [36] 1.03%
inactive: viability, T/C [1] 25.8% | viability, T/C [13] 16.3% | viability, T/C [2] 15.5% | viability, T/C [14] 9.27% | viability, T/C [15] 11.8% | viability, T/C [16] 16.7% | viability, T/C [3] 26.2% | viability, T/C [17] 26.1% | viability, T/C [4] 13.4% | viability, T/C [18] 13.1% | viability, T/C [19] 14.7% | viability, T/C [20] 14.5% | viability, T/C [5] 30.5% | viability, T/C [21] 30.4% | viability, T/C [6] 19% | viability, T/C [22] 14.6% | viability, T/C [23] 14.8% | viability, T/C [24] 19% | viability, T/C [7] 30.9% | viability, T/C [25] 24.8% | viability, T/C [8] 18% | viability, T/C [26] 16.1% | viability, T/C [27] 15.2% | viability, T/C [28] 20.7% | viability, T/C [9] 32.2% | viability, T/C [29] 24.8% | viability, T/C [10] 19.1% | viability, T/C [30] 16.9% | viability, T/C [31] 18% | viability, T/C [32] 19.8%

CC1COCCN1c1cc(-c2ccnn2C)c2ccnc(-c3ccn[nH]3)c2n1 (stereo unspecified) + Cc1[nH]c2ccc(F)cc2c1-c1nc2c3cccnc3c3ncccc3c2[nH]1
93.9 nM: IC50 (second compound 10 µM)
89.1 nM: IC50 (second compound 0.0316 µM)
120 nM: IC50 (second compound 1 µM)
inactive: viability, T/C [1] 90.7% | viability, T/C [13] 45.6% | viability, T/C [2] 25.8% | viability, T/C [14] 26.4% | viability, T/C [15] 27% | viability, T/C [16] 26.3% | viability, T/C [3] 82.7% | viability, T/C [17] 48.6% | viability, T/C [4] 25.1% | viability, T/C [18] 21.8% | viability, T/C [19] 28.6% | viability, T/C [20] 25.7% | viability, T/C [5] 95.1% | viability, T/C [21] 51.4% | viability, T/C [6] 23.3% | viability, T/C [22] 23.9% | viability, T/C [23] 25.8% | viability, T/C [24] 25.3% | viability, T/C [7] 92.4% | viability, T/C [25] 54.5% | viability, T/C [8] 26.4% | viability, T/C [26] 26.4% | viability, T/C [27] 24.8% | viability, T/C [28] 26.6% | viability, T/C [9] 98.2% | viability, T/C [29] 48.8% | viability, T/C [10] 25.4% | viability, T/C [30] 26.2% | viability, T/C [31] 25.7% | viability, T/C [32] 22.5% | viability, T/C [11] 92.7% | viability, T/C [33] 47.6% | viability, T/C [12] 24.2% | viability, T/C [34] 27.4% | viability, T/C [35] 23% | viability, T/C [36] 24.1%
95.5 nM: IC50 (second compound 0.1 µM)
107 nM: IC50 (second compound 0.316 µM)
97.2 nM: IC50 (second compound 3.16 µM)
